In this assay the target is PspF1−275 (Escherichia coli, UniProt P37344). As to the kind of experiment: analytical gel filtration, ADP-dependent dimer-to-hexamer shift. It is filed as binding. To be noted: 0.5 mM ADP, 10 μM protein, pH 8.0, 15 mM MgCl2, room temperature. (In gel filtration, larger molecules generally elute earlier.)
PspF1−275, sequence (P37344 1-275): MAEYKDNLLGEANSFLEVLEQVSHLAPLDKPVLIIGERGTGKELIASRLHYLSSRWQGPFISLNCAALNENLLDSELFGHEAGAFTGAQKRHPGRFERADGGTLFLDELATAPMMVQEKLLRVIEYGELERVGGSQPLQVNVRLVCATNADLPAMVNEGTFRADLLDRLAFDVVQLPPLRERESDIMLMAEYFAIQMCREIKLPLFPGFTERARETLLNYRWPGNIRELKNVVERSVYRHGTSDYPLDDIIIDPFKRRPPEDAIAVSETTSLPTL

As to `Nc1ncnc2c1ncn2[C@@H]1O[C@H](COP(=O)(O)OP(=O)(O)O)[C@@H](O)[C@H]1O` [ADP], the “analytical gel filtration, ADP-dependent dimer-to-hexamer shift” value was “dimers (Fig. 4A) in the absence of nucleotide and hexamers in the presence of ADP”.

The values above are taken from paper PMC2745333 (Molecular Microbiology, 2009).
